Laboratory results taken from patent US8344017B2, “Anti-hepatitis C virus agents and anti-HIV agents” (Mitsubishi Corporation, priority 2003, dated 2013).
Values after ≈ are worked out from the molar mass of the structure shown. Like-named read-outs stand apart in the source and are kept apart here.

Key:
[1] = biological target: HIV reverse transcriptase (Human immunodeficiency virus type 1 group M subtype B, UniProt P03366); assay: HIV reverse transcriptase inhibitory activity (32P-dTTP incorporation); assay type: biochemical; settings: 1 hour at 37° C., pH 8.3
Procedure: The experiment was performed as follows in 50 mM Tris-HCl buffer (pH 8.3); to 10 μL of a reaction solution which had been prepared so as to contain 30 mM NaCl, 10 mM MgCl, 2.5 mM DTT, 1.25 μg/mL poly(rA). oligo(dT) 12-18, 250 nM dTTP, ^32P-dTTP (800 μCi/mmol), 1 μl of a sample dissolved in DMSO, 1 μl of HIV reverse transcriptase (0.01 U/mL) were added, and the total volume was made up to 20 μl. After the solution was incubated for 1 hour at 37° C., 10 μl of the reaction solution was placed on a Whatman DE81 filter, which was washed three times with Na2HPO4, once with 70% ethanol and once with ethanol. The dried filter was placed in a vial, and the radioactivity was counted by the liquid scintillation measurement method, which was assigned to the HIV reverse transcriptase activity.

E. hirae ATCC 8043 = assay: Antimicrobial activity, MIC; assay type: cell-based
Procedure: (§1) Each fullerene derivative or the like was dissolved in DMSO, then added to the culture medium of bacteria. Vancomycin is an antimicrobial agent used for drug resistant bacteria (Methicillin resistant strains, MRSA) which has been in trouble now. […] Among the regioisomers of the compound 2, 2t-2, 2t-3 and 2t-4, differences in the effects are observed in some degree depending on bacteria, however, there are no significant differences, and they have an antimicrobial activity substantially equivalent to that of vancomycin, and are also effective for MRSA. Furthermore, worthy of special mention is the fact that these fullerene derivatives and the like show an effective antimicrobial activity against also vancomycin-resistant bacteria (VRE). […] At present, vancomycin-resistant bacteria began to emerge, therefore, the compound 2 is expected to exert an effect on these.

S. aureus 209P JC-1 = assay: Antimicrobial activity, MIC; assay type: cell-based
Procedure: as §1

E. faecium vanA (VRE) = assay: Antimicrobial activity, MIC; assay type: cell-based
Procedure: as §1

S. aureus M133 (MRSA) = assay: Antimicrobial activity, MIC; assay type: cell-based
Procedure: as §1

S. aureus M126 (MRSA) = assay: Antimicrobial activity, MIC; assay type: cell-based
Procedure: as §1

E. faecalis W-73 = assay: Antimicrobial activity, MIC; assay type: cell-based
Procedure: as §1

[2] = tested on: E. faecalis NCTC 12201 (VRE); assay: Antimicrobial activity, MIC; assay type: cell-based
Procedure: as §1

S. eidermidis ATCC 14990 = assay: Antimicrobial activity, MIC; assay type: cell-based
Procedure: as §1

[3] = biological target: T1, RNA polymerase of hepatitis C virus (Hepatitis C virus genotype 1a, UniProt P27958); assay: RNA polymerase activity of hepatitis C virus, inhibitory activity; assay type: biochemical
T1 construct: measuring RNA polymerase activity of hepatitis C virus
Excerpt: (1) By using an experimental system for measuring RNA polymerase activity of hepatitis C virus (D. Dhanak et al., J. Biol. Chem., 277, 38322-[…] (2002)), its inhibitory activity was examined.
With regard to the foregoing compound 2, major regioisomers were separated and purified, however, with regard to others, bioactivities were investigated using mixtures.

T1 sequence (P27958 2421-3011): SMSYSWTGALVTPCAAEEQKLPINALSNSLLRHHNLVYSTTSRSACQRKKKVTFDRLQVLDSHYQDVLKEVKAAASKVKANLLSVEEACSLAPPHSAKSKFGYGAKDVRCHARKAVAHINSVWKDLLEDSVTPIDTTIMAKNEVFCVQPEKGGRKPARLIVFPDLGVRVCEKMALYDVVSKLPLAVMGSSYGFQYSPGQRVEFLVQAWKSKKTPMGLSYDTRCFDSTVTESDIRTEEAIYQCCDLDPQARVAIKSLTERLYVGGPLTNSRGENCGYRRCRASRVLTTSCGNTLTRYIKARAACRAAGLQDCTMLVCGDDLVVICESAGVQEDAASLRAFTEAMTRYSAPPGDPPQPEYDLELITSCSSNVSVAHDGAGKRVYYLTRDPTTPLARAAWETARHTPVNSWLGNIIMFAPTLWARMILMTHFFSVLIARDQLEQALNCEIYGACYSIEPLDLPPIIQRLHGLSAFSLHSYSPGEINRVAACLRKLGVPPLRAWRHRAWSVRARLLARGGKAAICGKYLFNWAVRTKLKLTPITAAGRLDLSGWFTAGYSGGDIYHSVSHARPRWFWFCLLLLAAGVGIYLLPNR

Question: For `CN1CC23c4c5c6c7c8c9c(c%10c%11c2c2c4c4c%12c5c5c6c6c8c8c%13c9c9c%10c%10c%11c%11c2c2c4c4c%12c%12c5c5c6c8c6c8c%13c9c9c%10c%10c%11c2c2c4c4c%12c5c6c5c8c9c%10c2c45)C73C1c1ccc[n+](C)c1` (stereo not shown) [compound 12], which IC50 [1] is on record?
Answer: 5.2 µM

Question: For `O=C(O)CN1CC23c4c5c6c7c8c9c(c%10c%11c2c2c4c4c%12c5c5c6c6c8c8c%13c9c9c%10c%10c%11c%11c2c2c4c4c%12c%12c5c5c6c8c6c8c%13c9c9c%10c%10c%11c2c2c4c4c%12c5c6c5c8c9c%10c2c45)C73C1C(=O)O` (stereo not shown) [compound 10], which IC50 [1] is on record?
Answer: 1 µM

Question: What does the source list for “C60-bis(N,N-dimethyl-2-hexylpyyrolidinium iodido) [compound 4]”?
Answer: MIC (E. hirae ATCC 8043; E. hirae ATCC 8043): 25000 µg/mL; MIC (S. aureus 209P JC-1; S. aureus 209P JC-1): 6250 µg/mL; MIC (E. faecium vanA (VRE)): 12500 µg/mL; MIC (S. aureus M133 (MRSA); S. aureus M133 (MRSA)): 12500 µg/mL; MIC (S. aureus M126 (MRSA); S. aureus M126 (MRSA)): 12500 µg/mL; MIC (E. faecalis W-73): 50000 µg/mL; MIC [2]: 25000 µg/mL; MIC (S. eidermidis ATCC 14990; S. eidermidis ATCC 14990): 12500 µg/mL; IC50 [1]: 0.8 µM

Question: Which IC50 [1] does the source give for `O=C(O)CN1C(C(=O)O)C23c4c5c6c7c8c9c(c%10c%11c2c2c4c4c%12c5c5c6c6c8c8c%13c9c9c%10c%10c%11c%11c2c2c4c4c%12c%12c5c5c6c8c6c8c%13c9c9c%10c%10c%11c2c2c4c4c%12c5c6c5c8c9c%10c2c45)C73C1C(=O)O` (stereo not shown) [compound 8] here?
Answer: 0.029 µM

Question: What about the IC50 [3] of the same compound?
Answer: 2 µM

Question: `CN[C@H](CC(C)C)C(=O)N[C@H]1C(=O)N[C@@H](CC(N)=O)C(=O)N[C@H]2C(=O)N[C@H]3C(=O)N[C@H](C(=O)N[C@H](C(=O)O)c4cc(O)cc(O)c4-c4cc3ccc4O)[C@H](O)c3ccc(c(Cl)c3)Oc3cc2cc(c3O[C@@H]2O[C@H](CO)[C@@H](O)[C@H](O)[C@H]2O[C@H]2C[C@](C)(N)[C@H](O)[C@H](C)O2)Oc2ccc(cc2Cl)[C@H]1O` [VCM, vancomycin, reference compound] was tested. Which MIC (E. hirae ATCC 8043; Enterococcus hirae, ATCC8043) did it give?
Answer: 3120 µg/mL (≈ 2150 µM)

Question: And the MIC (S. aureus 209P JC-1; Staphylococcus aureus, 209P)?
Answer: 1560 µg/mL (≈ 1080 µM)

Question: And the MIC (S. aureus M133 (MRSA); Staphylococcus aureus, MRSA)?
Answer: 1560 µg/mL (≈ 1080 µM)

Question: What about the MIC (S. aureus M126 (MRSA); Staphylococcus aureus, MRSA) of the same compound?
Answer: 1560 µg/mL (≈ 1080 µM)

Question: What about the MIC (S. eidermidis ATCC 14990) of the same compound?
Answer: 3120 µg/mL (≈ 2150 µM)

Question: For `C[N+]1(C)CC23c4c5c6c7c8c9c(c%10c%11c2c2c4c4c%12c5c5c6c6c8c8c%13c9c9c%10c%10c%11c%11c2c2c4c4c%12c%12c5c5c6c8c6c8c%13c9c9c%10c%10c%11c2c2c4c4c%12c5c6c5c8c9c%10c2c45)C73C1` (stereo not shown) [compound 9], which IC50 [1] is on record?
Answer: 1.6 µM
